Assays:
[1] = Toxicity in Kunming mouse assessed as effect on heart size at 100 to 200 mg/kg, iv once daily for 5 days; type: organism-based; details: in vivo, 120 h, dose 100-200 mg/kg, time 5 day
[2] = Toxicity in Kunming mouse assessed as effect on liver colour at 100 to 200 mg/kg, iv once daily for 5 days; type: organism-based; details: in vivo, 120 h, dose 100-200 mg/kg, time 5 day
[3] = Toxicity in Kunming mouse assessed as effect on liver weight at 100 to 200 mg/kg, iv once daily for 5 days; type: organism-based; details: in vivo, 120 h, dose 100-200 mg/kg, time 5 day
[4] = system: LX-2; experiment: (§1) Cytotoxicity against human LX2 cells assessed as cell growth inhibition at 10 uM incubated for 48 hrs by CCK8 assay relative to control; type: toxicity, cell-based; details: lx-2, 48 h, 10 µM
[5] = Toxicity in Kunming mouse assessed as effect on body weight at 100 to 200 mg/kg, iv administered once daily for 5 days; type: organism-based; details: in vivo, 120 h, dose 100-200 mg/kg, time 5 day
[6] = Toxicity in Kunming mouse assessed as effect on heart colour at 100 to 200 mg/kg, iv once daily for 5 days; type: organism-based; details: in vivo, 120 h, dose 100-200 mg/kg, time 5 day
[7] = Drug metabolism in plasma of Sprague-Dawley rat assessed as (1-(36-(((2R,3R,4S,5R,6R)-3-acetamido-4,5-dihydroxy-6-(hydroxymethyl)tetrahydro-2H-pyran-2-yl)oxy)-21,21-bis((3-((3-(5-(((2R,3R,4S,5R,6R)-3-acetamido-4,5-dihydroxy-6-(hydroxymethyl)tetrahydro-2H-pyran-2-yl)oxy)pentanamido)propyl)amino)-3-oxopropoxy)methyl)-16,19,26,32-tetraoxo-3,6,9,12,23-pentaoxa-15,20,27,31-tetraazahexatriacontyl)-1H-1,2,3-triazol-4-yl)methyl hydrogen ((2-(6-amino-9H-purin-9-yl)ethoxy)methyl)phosphonate formation measured at 2.1 mins by HPLC analysis; type: ADME, cell-free; details: 0.035 h
[8] = Toxicity in Kunming mouse assessed as effect on kidney weight at 100 to 200 mg/kg, iv once daily for 5 days; type: organism-based; details: in vivo, 120 h, dose 100-200 mg/kg, time 5 day
[9] = Stability of compound in PBS buffer assessed as half-life by high-performance liquid chromatography; type: physicochemical
[10] = Toxicity in Kunming mouse assessed as effect on heart weight at 100 to 200 mg/kg, iv once daily for 5 days; type: organism-based; details: in vivo, 120 h, dose 100-200 mg/kg, time 5 day
[11] = Toxicity in Kunming mouse assessed as histopathological changes in heart at 200 mg/kg, iv once daily for 5 days by H and E staining based analysis; type: organism-based; details: in vivo, 120 h, time 5 day
[12] = system: Hepatitis B virus; experiment: Antiviral activity against Hepatitis B virus infected in human HepG2.2.15 cells assessed as inhibition of HBV DNA replication incubated for 10 day by qPCR analysis; type: functional, organism-based; details: HepG2.2.15, 240 h
[13] = Cytotoxicity against human HepG2.2.15 cells assessed as inhibition of cell proliferation by CCK8 assay; type: toxicity, cell-based, HepG2 2.2.15
[14] = Toxicity in Kunming mouse assessed as effect on kidney colour at 100 to 200 mg/kg, iv once daily for 5 days; type: organism-based; details: in vivo, 120 h, dose 100-200 mg/kg, time 5 day
[15] = Toxicity in Kunming mouse assessed as histopathological changes in liver at 200 mg/kg, iv once daily for 5 days by H and E staining based analysis; type: organism-based; details: in vivo, 120 h, time 5 day
[16] = Selectivity index, the ratio of CC50 for human HepG2.2.15 cells to EC50 for antiviral activity against HBV in human HepG2.2.15 cells assessed as inhibition of HBV DNA replication; type: toxicity, cell-based; details: read-out: Ratio CC50/EC50
[17] = system: LX-2; experiment: Cytotoxicity against human LX2 cells at 5 uM incubated for 48 hrs by CCK8 assay; type: toxicity, cell-based; details: lx-2, 48 h
[18] = Toxicity in Kunming mouse assessed as effect on liver size at 100 to 200 mg/kg, iv once daily for 5 days; type: organism-based; details: in vivo, 120 h, dose 100-200 mg/kg, time 5 day
[19] = Drug uptake in Sprague-Dawley rat liver at 10 mg/kg, iv measured after 1 to 6 hrs by LC-MS/MS analysis; type: ADME, organism-based; details: in vivo, time 1-6 hrs
[20] = Toxicity in Kunming mouse assessed as histopathological changes in kidney at 200 mg/kg, iv once daily for 5 days by H and E staining based analysis; type: organism-based; details: in vivo, 120 h, time 5 day
[21] = Toxicity in Kunming mouse assessed as maximum tolerated dose administered intravenously as once daily dose for 5 days; details: in vivo, route iv, time 5 day
[22] = Toxicity in Kunming mouse assessed as effect on kidney size at 100 to 200 mg/kg, iv once daily for 5 days; type: organism-based; details: in vivo, 120 h, dose 100-200 mg/kg, time 5 day
[23] = Prodrug release in human HepG2 cells assessed as adefovir release measured over 1 hrs by HPLC analysis; type: ADME, cell-based; details: hepg2, 1 h
[24] = Prodrug release in human HepG2 cells assessed as adefovir release by mass spectrometric analysis; type: ADME, cell-based
[25] = Drug metabolism in plasma of Sprague-Dawley rat assessed as hydrolyzed metabolite formation measured after 5 hrs by HPLC analysis; type: ADME, cell-free
[26] = Prodrug release in human HepG2 cells assessed as tenofovir release by mass spectrometric analysis; type: ADME, cell-based
[27] = Prodrug release in human HepG2 cells assessed as tenofovir release measured over 1 hrs by HPLC analysis; type: ADME, cell-based; details: hepg2, 1 h
[28] = as §1; type: toxicity, cell-based, LX-2; details: LX2 cells, read-out: GI
[29] = Drug uptake in Sprague-Dawley rat kidney at 10 mg/kg, iv measured after 1 to 6 hrs by LC-MS/MS analysis; type: ADME, organism-based; details: in vivo, time 1-6 hrs

With `CC(=O)N[C@H]1[C@H](OCCCCC(=O)NCCCNC(=O)CCOCC(COCCC(=O)NCCCNC(=O)CCCCO[C@@H]2O[C@H](CO)[C@H](O)[C@@H](O)[C@H]2NC(C)=O)(COCCC(=O)NCCCNC(=O)CCCCO[C@@H]2O[C@H](CO)[C@H](O)[C@@H](O)[C@H]2NC(C)=O)NC(=O)CCC(=O)NCCOCCOCCOCCOCCn2cc(COP(=O)(COCCn3cnc4c(N)ncnc43)OCOC(=O)C(C)(C)C)nn2)O[C@H](CO)[C@H](O)[C@H]1O` (some centres undefined) the Activity [1] was “Non-toxic”, the Activity [2] was “Non-toxic” and the Activity [3] was “Non-toxic”. The Activity [4] was “Toxic”, the Activity [5] was “Non-toxic” and the Activity [6] was “Non-toxic”. For the same compound, the Drug metabolism [7] was “metabolite_detected”, the Activity [8] was “Non-toxic” and the half-life [9] was > 24 h. For the same compound, the Activity [10] was “Non-toxic”, the Activity [11] was “Non-toxic” and the EC50 [12] was 98.3 nM. The CC50 [13] was > 100000 nM, the Activity [14] was “Non-toxic” and the Activity [15] was “Non-toxic”. For the same compound, the selectivity ratio [16] was > 1020, the Activity [17] was “Toxic” and the Activity [18] was “Non-toxic”. The Drug uptake [19] was “Active”, the Activity [20] was “Non-toxic” and the MTD at 120 h [21] was ~200 mg/kg. The Activity [22] was “Non-toxic”.

With `CC(=O)N[C@H]1[C@H](OCCCCC(=O)NCCCNC(=O)CCOCC(COCCC(=O)NCCCNC(=O)CCCCO[C@@H]2O[C@H](CO)[C@H](O)[C@@H](O)[C@H]2NC(C)=O)(COCCC(=O)NCCCNC(=O)CCCCO[C@@H]2O[C@H](CO)[C@H](O)[C@@H](O)[C@H]2NC(C)=O)NC(=O)CCC(=O)NCCOCCOCCOCCOCCn2cc(COP(=O)(O)CO[C@H](C)Cn3cnc4c(N)ncnc43)nn2)O[C@H](CO)[C@H](O)[C@H]1O` (racemic) the Drug metabolism [23] was “metabolite_detected”, the Drug metabolism [24] was “metabolite_detected” and the Drug metabolism [25] was “metabolite_notdetected”. For the same compound, the Drug metabolism [26] was “metabolite_detected” and the Drug metabolism [27] was “metabolite_detected”.

For `CC(C)(C)C(=O)OCOP(=O)(COCCn1cnc2c(N)ncnc21)OCOC(=O)C(C)(C)C` [ADEFOVIR DIPIVOXIL], the inhibition at 48 h, 10 µM [28] was ~30%, the EC50 [12] was 240 nM and the CC50 [13] was 10700 nM. For the same compound, the selectivity ratio [16] was 44.6, the Drug uptake [29] was “Active” and the Activity [17] was “Non-toxic”.

`CC(C)OC(=O)OCOP(=O)(CO[C@H](C)Cn1cnc2c(N)ncnc21)OCOC(=O)OC(C)C.O=C(O)/C=C/C(=O)O` [TENOFOVIR DISOPROXIL FUMARATE] gave an inhibition at 48 h, 10 µM [28] of ~30%, an EC50 [12] of 188 nM and a CC50 [13] of 8200 nM. The selectivity ratio [16] was 43.7, the Drug uptake [29] was “Active” and the Activity [17] was “Non-toxic”.

Source: ChEMBL document CHEMBL6153042, “Glycoconjugates of adefovir and tenofovir as asialoglycoprotein-mediated Anti-HBV prodrugs with enhanced liver targeting” (Eur J Med Chem, 2025)
